Measured values reported in PMC12668289 (RSC Chemical Biology, 2025).

Assays:
Eluc = assay: BL emission spectra of luciferase-luciferin reactions; format: biochemical, Pyrearinus termitilluminans; conditions: 100 mM HEPES pH 8.0, 25 °C
Procedure: (§1) 1.5 Bioluminescence characterizations
(§2) Reactions of luciferases, including Photinus pyralis luciferase (Fluc), Phrixothrix hirtus luciferase (SLR), Pyrearinus termitilluminans […]
(§3) mM D-LH 2 analogues, 3 mM ATP, 6 mM MgCl2, and 10 µM luciferase in 0.2 ml of 100 mM HEPES-NaOH pH 8.0. The bioluminescence (BL) emission characteristics were recorded using a microplate reader in a BL mode (Thermo Scientific, Varioskan, LUX multimode). […]
(§4) sphere-based multichannel spectrometer with a charge-coupled device (CCD) detector. […]

Pmluc-WT = assay: as above; format: biochemical, Pyrocoelia miyako; conditions: 100 mM HEPES pH 8.0, 25 °C
Procedure: as §1, §2, §3, §4

Pmluc-N230S [1] = assay: as above; format: biochemical, Pyrocoelia miyako; conditions: 100 mM HEPES pH 8.0, 25 °C
Procedure: mM D-LH 2 analogues, 3 mM ATP, 6 mM MgCl2, and 10 µM luciferase in 0.2 ml of 100 mM HEPES-NaOH pH 8.0. The bioluminescence (BL) emission characteristics were recorded using a microplate reader in a BL mode (Thermo Scientific, Varioskan, LUX multimode). A digital single-lens reflex (DSLR) camera (Nikon D80, CCD sensor) with a 30-second exposure period was used to capture the BL images.
were selected to investigate their BL emission spectra with luciferases including Fluc, SLR, Pmluc-WT, Pmluc-N230S using an integrating sphere-based multichannel spectrometer with a charge-coupled device (CCD) detector.

Fluc [2] = target: T1, Fluc (Photinus pyralis, UniProt P08659); assay: Steady-state kinetics of luciferase reactions (luminometer); format: biochemical; conditions: for appKm: pH 8.0, 25 °C; for Substrate inhibition: concentration range tested 0-300
T1 sequence (P08659 whole entry): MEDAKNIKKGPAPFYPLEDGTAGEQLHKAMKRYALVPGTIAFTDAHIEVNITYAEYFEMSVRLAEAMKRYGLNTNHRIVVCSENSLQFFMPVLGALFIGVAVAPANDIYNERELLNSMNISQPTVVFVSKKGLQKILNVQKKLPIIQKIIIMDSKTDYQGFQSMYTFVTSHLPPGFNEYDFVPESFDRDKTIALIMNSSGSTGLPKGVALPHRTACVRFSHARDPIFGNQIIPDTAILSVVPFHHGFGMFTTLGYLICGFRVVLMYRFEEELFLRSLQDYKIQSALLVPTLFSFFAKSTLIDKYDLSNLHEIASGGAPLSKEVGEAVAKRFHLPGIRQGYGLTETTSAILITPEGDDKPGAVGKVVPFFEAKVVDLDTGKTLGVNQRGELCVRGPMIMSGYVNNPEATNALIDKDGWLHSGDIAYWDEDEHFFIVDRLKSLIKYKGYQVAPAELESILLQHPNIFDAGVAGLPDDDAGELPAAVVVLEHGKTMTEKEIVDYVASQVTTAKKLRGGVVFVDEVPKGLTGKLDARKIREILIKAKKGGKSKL
Procedure: as §1, §2, §3
BL of the
The reactions were initiated by mixing 25 µl of premixed solution of luciferases/D-LH 2 analogues with 125 µl of 3 mM ATP and 6 mM MgCl2 in 100 mM HEPES-NaOH (pH 8.0). The light intensity (relative light unit, RLU) during 0-300 sec was then collected to represent the overall luciferase activity which was further used for calculating kinetic parameters from the Michaelis-Menten equation. […]

[3] = target: T2, Fluc-containing HEK293T crude lysate (Photinus pyralis, UniProt P08659, K549A/L550V/N119G/N50D/S548I); assay: BL assay of crude lysate of HEK293T expressing Fluc; format: cell-based
T2 construct: expressed in transfected cells; host or cells: HEK293T, transient transfection with pGL4.13 [luc2/SV40]
T2 sequence (P08659 whole entry N50D/N119G/S548I/K549A/L550V): as the sequence (P08659 whole entry) above, with N50D, N119G, S548I, K549A, L550V counted along it

Pmluc-N230S (HepG2) = assay: Sensitivity of live reporter cell detection (LOD of cell number); format: cell-based, human
Pmluc-N230S (HeLa) = assay: as above; format: cell-based, human; conditions: for Limit of detection (LOD), cells: Pmluc-N230S (HeLa); for Sensitivity higher than that of 2a: Pmluc-N230S expressing HeLa
Fluc [4] = target: T1, Fluc; conditions: Fluc; cited from earlier work
Fluc [5] = target: T1, Fluc; assay: BL emission spectra of luciferase-luciferin reactions; format: biochemical; conditions: 100 mM HEPES pH 8.0, 25 °C
Procedure: as §1, §2, §3, §4

SLR = assay: Stability of BL signals (half-time of light emission); format: biochemical, Phrixothrix hirtus; conditions: compared to 2a
Procedure: as §1, §2
as §3, with “multimode). A digital single-lens reflex (DSLR) camera (Nikon D80, CCD sensor) with a 30-second exposure period was used to capture the BL images.” for “multimode).”

Pmluc-N230S [6] = assay: as above; format: biochemical, Pyrocoelia miyako; conditions: compared to 2a
Procedure: as §1, §2
as §3, with “multimode). A digital single-lens reflex (DSLR) camera (Nikon D80, CCD sensor) with a 30-second exposure period was used to capture the BL images.” for “multimode).”

[7] = tested on: Fluc-expressing HeLa cells; assay: Real-time BL monitoring of live cells; conditions: 100 µM
Procedure: plasmids and Lipofectamine 3000 were then combined and incubated for 30 minutes to allow formation of DNA and lipid complexes.
The DNA-lipid complexes were added directly to each well of the empty plate. 1.5 × 10⁵ cells (HepG2 and HeLa cells) were then suspended
in 150 µL of DMEM supplemented with 10% FBS were added directly into the transfection mixture in each well. The plate was gently
agitated to ensure even distribution and incubated at 37°C in a humidified 5% CO₂ incubator. The reporter cells obtained at this stage
were ready for further investigation of their bioluminescence with D-LH2 analogues.
2c), 10% FBS and 25 mM HEPES-NaOH (pH 7.0) was added and the BL signals were monitored with F0 (no filter) and F2 (red filter, >620
nm long-pass filter) by a luminometer (ATTO, Kronos HT, WSL-1563) and while maintaining the cells with 5% CO2 at 37 °C.

Fluc [8] = target: T1, Fluc; assay: Stability of BL signals (half-time of light emission); format: biochemical; conditions: compared to 2a
Procedure: as §1, §2
as §3, with “multimode). A digital single-lens reflex (DSLR) camera (Nikon D80, CCD sensor) with a 30-second exposure period was used to capture the BL images.” for “multimode).”

Row | Structure (SMILES) | Bioluminescence wavelength (BLλ) (Eluc) | Bioluminescence wavelength (BLλ) (Pmluc-WT) | appKm (Fluc [2]) | Limit of detection (LOD) of expressed Fluc in crude cell lysates ([3]; HEK293T crude lysate) | Limit of detection (LOD), cells (Pmluc-N230S (HepG2); F0 (no filter)) | Limit of detection (LOD), cells (Pmluc-N230S (HepG2); F2 (red filter)) | Limit of detection (LOD), cells (Pmluc-N230S (HeLa); F0 (no filter)) | Limit of detection (LOD), cells (Pmluc-N230S (HeLa); F2 (red filter)) | Bioluminescence wavelength (BLλ) (Fluc [5]) | Substrate inhibition (Fluc [2]) | BL half-life (t1/2) longer than that of 2a (Pmluc-N230S [6]) | Time BL signals increase or are prolonged before decreasing [7] | also measured
1 | O=C(O)[C@H]1CSC(c2nc3ccc(O)cc3s2)=N1 [Compound 2a, D-luciferin, reference compound] | 537 nm | 554 nm | 3.3 µM | 51.6 ng | 2010 cells | 1880 cells | 1428 cells | 1185 cells |  |  |  |  | Bioluminescence wavelength (BLλ) (Pmluc-N230S [1]): 614 nm; Quantum yield (Fluc [4]): 41%
2 | Cc1cc2nc(C3=N[C@@H](C(=O)O)CS3)sc2cc1O [Compound 2b, 5’-methyl-D-luciferin] | 560 nm | 608 nm | 3.1 µM | 4.6 ng | 752 cells | 247 cells | 630 cells | 812 cells | 605 nm | > 10.0 µM | about 1.7 fold | up to 13 h | BL half-life (t1/2) longer than that of 2a (SLR): about 1.5 fold; Sensitivity to detect Fluc better than natural D-LH2 (2a) ([3]; HEK293T crude lysate, from LOD): about 11.2 fold; Sensitivity greater than 2a ([3]; HEK293T lysate, varied substrate concentration and lysate amount): about 2 fold; Light intensity greater than 2a ([3]; fixed amount of HEK293T crude lysate, varied concentration): about 2.5 fold; Sensitivity higher than that of 2a (Pmluc-N230S (HeLa); F0 filter): about 2.3 fold; Sensitivity higher than that of 2a (Pmluc-N230S (HeLa); F2 filter): ~1.4 fold
3 | Cc1cc2nc(C3=N[C@@H](C(=O)O)CS3)sc2c(C)c1O [Compound 2c, 5’,7’-di-methyl-D-luciferin] | 573 nm | 631 nm | 2.5 µM |  |  |  |  |  | 628 nm | > 12.5 µM | ~5.6 fold | up to 13 h | Relative kcat (Fluc [2]; relative to 2a compound): 67.8; BL half-life (t1/2) longer than that of 2a (Fluc [8]): about 1.7 fold
